# Reference: patent US4599336A, “Derivatives of (E)-3-(4-oxo-4H-quinazolin-3-yl)-2-propenamide” (Hoffmann-La Roche Inc., priority 1983, dated 1986)
# Molecular target: T1, TXA2 synthase (Homo sapiens, UniProt P24557)
# T1 construct: using microsomal fractions from human platelets as enzyme source; from tissue; host or cells: human platelets, microsomal fraction
# T1 sequence (P24557 1-533): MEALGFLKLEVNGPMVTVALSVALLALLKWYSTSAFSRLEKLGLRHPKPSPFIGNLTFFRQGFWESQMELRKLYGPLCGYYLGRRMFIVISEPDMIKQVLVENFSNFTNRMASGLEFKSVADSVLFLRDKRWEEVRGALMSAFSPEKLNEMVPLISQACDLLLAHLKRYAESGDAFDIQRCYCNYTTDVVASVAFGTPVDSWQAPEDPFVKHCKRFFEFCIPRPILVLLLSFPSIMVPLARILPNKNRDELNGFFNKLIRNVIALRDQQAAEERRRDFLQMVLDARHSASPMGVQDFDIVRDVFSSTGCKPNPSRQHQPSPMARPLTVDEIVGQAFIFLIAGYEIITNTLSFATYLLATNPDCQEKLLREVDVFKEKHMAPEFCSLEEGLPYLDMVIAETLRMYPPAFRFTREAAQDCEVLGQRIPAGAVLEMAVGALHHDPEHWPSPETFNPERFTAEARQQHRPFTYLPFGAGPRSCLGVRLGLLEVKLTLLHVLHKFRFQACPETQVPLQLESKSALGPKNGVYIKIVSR
# Experiment: Thromboxane Synthase Inhibition, In Vitro
# Assay type: biochemical
# Conditions: human platelet microsomes; for inhibition at 0.1 µM: at 10^-7 M
# Protocol: TXA2 synthase activity is measured by following the conversion of ^14 C-prostaglandin endoperoxide (PGH2) to ^14 C-thromboxane A2 (TXA2) using microsomal fractions from human platelets as enzyme source. In the aqueous incubation medium, the TXA2 decomposes rapidly into TXB2. The amount of TXA2 synthase is adjusted so that under the conditions of the assay approximately 80-90% of the substrate, PGH2, is converted to product in control tubes. To prepare ^14 C--PGH2, ^14 C--AA (50-60 mCi/mmole; Rose Chem.) is incubated with sheep seminal vesicular gland microsomes for 1.5 minutes at 37° C. and then the ^14 C--PGH2 is extracted with diethylether, purified on columns of Sephadex LH-20 or silicic acid, and stored in acetone at -70° C. Incubations are done as follows. Sufficient ^14 C--PGH2 to yield a final substrate concentration of 10 μM (30,000 cpm) is added to the incubation tubes and then the acetone is removed under nitrogen. The tubes are placed in an ice bath and then 215 μl of ice cold phosphate buffered saline, 10 μl of ethanol (control) or of test drug in ethanol, and 25 μl of the microsomal suspension are added with mixing in that order as rapidly as possible. The tubes are incubated at 22° C. for 2 minutes, the reaction is stopped and then the radioactive products and the uncoverted PGH2 are extracted and analyzed by thin layer chromatography. […] The amount of ^14 C--PGH2 converted to products was used as a measure of TXA2 synthase activity. Inhibitors were tested initially at a final concentration of 100 μM. Results obtained with representative compounds of the present invention in this assay are summarized hereafter in Table I.
Compound,inhibition at 0.1 µM,IC50 (read-out: TXA2 Synthase Inhibition (concentration bound printed in the % column))
CC(C)c1ccc2ncn(/C=C/C(=O)NCCCCc3cccnc3)c(=O)c2c1 [drawing 12],48%,
CC(C)c1ccc2ncn(/C=C/C(=O)NCCCCn3ccnc3)c(=O)c2c1 [drawing 15],72%,
CC(C)c1ccc2ncn(/C=C/C(=O)NCCCCc3ccccn3)c(=O)c2c1 [drawing 17],,> 10 µM
